Experimental data taken from PubChem BioAssay (NCI).
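The compound was tested at five concentrations on cells cultured in 96-well plates, with a 48-hour exposure period. TGI is the concentration that stops growth completely.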

Assays:
Test in all cases: NCI-60 cell line screen, 48 h
K-562 leukemia = system: K-562 leukemia
OVCAR-4 ovarian = system: OVCAR-4 ovarian
SF-539 CNS = system: SF-539 CNS
SK-MEL-2 melanoma = system: SK-MEL-2 melanoma
SK-MEL-5 melanoma = system: SK-MEL-5 melanoma
SW-620 colon = system: SW-620 colon
UO-31 renal = system: UO-31 renal
KM12 colon = system: KM12 colon
HT29 colon = system: HT29 colon
HCT-116 colon = system: HCT-116 colon
NCI-H460 lung = system: NCI-H460 lung
LOX IMVI melanoma = system: LOX IMVI melanoma
M14 melanoma = system: M14 melanoma
SNB-75 CNS = system: SNB-75 CNS
NCI/ADR-RES ovarian = system: NCI/ADR-RES ovarian
MDA-N = system: MDA-N
T-47D breast = system: T-47D breast
MDA-MB-231 breast = system: MDA-MB-231 breast
HS 578T breast = system: HS 578T breast

| SMILES | TGI (K-562 leukemia) | TGI (OVCAR-4 ovarian) | TGI (SF-539 CNS) | TGI (SK-MEL-2 melanoma) | TGI (SK-MEL-5 melanoma) | TGI (SW-620 colon) | TGI (UO-31 renal) | TGI (KM12 colon) | TGI (HT29 colon) | TGI (HCT-116 colon) | TGI (NCI-H460 lung) | TGI (LOX IMVI melanoma) | TGI (M14 melanoma) | TGI (SNB-75 CNS) | TGI (NCI/ADR-RES ovarian) | TGI (MDA-N) | TGI (T-47D breast) | TGI (MDA-MB-231 breast) | TGI (HS 578T breast) |
| --- | --- | --- | --- | --- | --- | --- | --- | --- | --- | --- | --- | --- | --- | --- | --- | --- | --- | --- | --- |
| O=C(Nc1c(Cl)cc([N+](=O)[O-])cc1Cl)/C(=N\Nc1cccc(Cl)c1)c1c(O)c2ccccc2oc1=O | > 100 µM | > 100 µM | > 100 µM | > 100 µM | > 100 µM | > 100 µM | 78.1 µM | > 100 µM | > 100 µM | > 100 µM | > 100 µM | – | – | – | – | – | – | – | – |
| C/C(=N/N)c1ccc2[nH]c3c(C)cc([N+](=O)[O-])c(C)c3c2c1 | 40.7 µM | 38.3 µM | 29.3 µM | 26.3 µM | 18.1 µM | 24.7 µM | 22.4 µM | – | 90.1 µM | 17.8 µM | 72.4 µM | 19.5 µM | 30.4 µM | > 100 µM | – | – | – | – | – |
| C[C@@H]1OC(=O)/C(=C\N(C)C)[C@H]2CC(=O)N(CCc3cn(S(=O)(=O)C(F)(F)F)c4ccccc34)C[C@H]12 | > 100 µM | > 100 µM | > 100 µM | > 100 µM | > 100 µM | > 100 µM | > 100 µM | > 100 µM | – | > 100 µM | > 100 µM | > 100 µM | > 100 µM | > 100 µM | > 100 µM | > 100 µM | > 100 µM | > 100 µM | – |
| CCCCP(CCCC)(CCCC)=C(C(=O)OC)C(C(=O)OC)=C1SC(C(=O)OC)=C(C(=O)OC)S1 | – | 52.5 µM | – | 63.1 µM | 29.7 µM | 87 µM | 51.4 µM | – | 30.7 µM | 31.9 µM | 35.9 µM | 28.5 µM | 30.2 µM | 45.4 µM | – | – | 43.7 µM | 35.7 µM | 43.7 µM |
| COC(=O)NN1C(=O)C(=P(c2ccccc2)(c2ccccc2)c2ccccc2)C(C(=O)OC)=C1C | > 100 µM | – | > 100 µM | > 100 µM | > 100 µM | > 100 µM | > 100 µM | – | > 100 µM | – | > 100 µM | > 100 µM | > 100 µM | > 100 µM | – | – | – | – | – |
| O=C(c1ccccc1)c1c(CNCc2ccccc2)n(C(=O)c2ccccc2)c2ccccc12 | > 100 µM | > 100 µM | > 100 µM | > 100 µM | > 100 µM | > 100 µM | 56.1 µM | 87.8 µM | > 100 µM | > 100 µM | > 100 µM | – | > 100 µM | 27.5 µM | – | – | – | – | – |
| COc1cc2c(cc1OC)C(Cc1c3ccccc3cc3ccccc13)N(C)CC2 (stereo not given) | 39.3 µM | > 100 µM | 47.1 µM | 32.6 µM | 35.3 µM | > 71.5 µM | 57.4 µM | 35.9 µM | 31 µM | 40.3 µM | 61.3 µM | 41.2 µM | – | 37.2 µM | > 74.1 µM | – | – | – | – |
| C/C(=N\Nc1nc2ccccc2o1)c1ccncn1 | > 100 µM | > 100 µM | > 100 µM | > 25.8 µM | > 81.6 µM | > 39.3 µM | 75.5 µM | 11.6 µM | > 35.6 µM | > 33.6 µM | > 42.6 µM | > 37.1 µM | – | > 48.2 µM | 0.84 µM | – | 23.2 µM | 97.1 µM | 27.1 µM |
| COc1cc2c(cc1O)C(C)Cc1cc3c(cc1N(C)CC2)OCO3 (stereo not given) | > 27.9 µM | > 65.2 µM | 8.8 µM | 38.1 µM | 10 µM | > 56.4 µM | 37.8 µM | 17.8 µM | 29.7 µM | > 35.2 µM | 37.7 µM | 18.1 µM | 19 µM | 9 µM | – | – | – | – | – |
| CC[C@]12C=CCN3CCC4(c5cc([C@@]6(C(=O)OC)CC7CN(CCc8c6[nH]c6ccccc86)C[C@@H]6CCC[C@H]76)c(OC)cc5N(C)C4[C@](O)(C(=O)OC)C1OC(C)=O)C32 (stereo not given in full) | > 10 µM | > 8.93 µM | 0.574 µM | > 6.89 µM | 0.181 µM | > 4.07 µM | > 10 µM | – | > 3.12 µM | 3.64 µM | > 4.71 µM | > 10 µM | > 3.45 µM | – | 4.75 µM | – | – | 0.536 µM | – |
| O=C(CSc1nnc(-c2ccc(N=Cc3ccc(Cl)cc3)cc2)o1)Nc1cccc(Cl)c1 | > 100 µM | > 100 µM | – | > 100 µM | > 100 µM | > 100 µM | > 100 µM | > 100 µM | > 100 µM | > 100 µM | > 100 µM | > 100 µM | > 100 µM | > 100 µM | – | – | – | – | – |
| CC1(C)C2CCC1(CC(=O)O)C(Cl)C2 (stereo not given) | > 100 µM | > 100 µM | > 100 µM | > 100 µM | > 100 µM | > 100 µM | > 100 µM | > 100 µM | > 100 µM | > 100 µM | > 100 µM | > 100 µM | > 100 µM | > 100 µM | > 100 µM | – | > 100 µM | > 100 µM | > 100 µM |
| CCCCCCCC/C=C/CCCCCCCC1CC(O)C(=O)O1 (stereo not given) | > 100 µM | > 100 µM | – | – | > 100 µM | > 100 µM | > 100 µM | – | > 100 µM | > 100 µM | > 100 µM | > 100 µM | > 100 µM | > 100 µM | > 100 µM | > 100 µM | > 100 µM | > 100 µM | – |
| Cc1cc(N=Nc2ccc(N=Nc3c(O)c(S(=O)(=O)O)cc4cc(S(=O)(=O)O)ccc34)cc2C)ccc1N=Nc1ccc2cc(S(=O)(=O)O)cc(S(=O)(=O)O)c2c1 | > 100 µM | > 100 µM | > 100 µM | > 100 µM | > 100 µM | > 100 µM | > 100 µM | > 100 µM | > 31.6 µM | > 100 µM | > 100 µM | > 100 µM | – | > 100 µM | > 100 µM | – | – | – | – |
| CCNc1ncnc2n[nH]nc12 | > 100 µM | > 100 µM | > 100 µM | > 100 µM | > 100 µM | > 100 µM | > 100 µM | > 100 µM | > 100 µM | > 100 µM | – | > 100 µM | > 100 µM | > 100 µM | > 100 µM | > 100 µM | > 100 µM | > 100 µM | – |
